Results reported in PMC3597726, “N-Substituted Benzyl Matrinic Acid Derivatives Inhibit Hepatitis C Virus (HCV) Replication through Down-Regulating Host Heat-Stress Cognate 70 (Hsc70) Expression” (PLoS ONE, 2013).
pEC50: −log10 of the molar value. Entries after “also recorded” stand apart in the source; their conditions may differ. Read-outs that look alike come from different tables or passages of the source.

Tests used:
[1] = system: HCV (recombination virus strain J6/JFH/JC); experiment: Anti-HCV activity in Huh7.5 cells, intracellular HCV RNA by real-time RT-PCR; format: cell-based, hepatitis C virus (HCV); conditions: for pEC50: anti-HCV activity, 72 h, HCV RNA by RT-PCR
Method: (§1) All of the synthesized compounds were examined for their anti-HCV activity and cytotoxicity in Huh 7.5 cells using specific real-time RT-PCR assay, as described in our previous publication. Anti-HCV activity was evaluated by measuring both EC50 (for anti-HCV activity) and CC50 (for cytotoxicity) values. As a key indication, the selectivity index (SI) was calculated as a ratio of CC50 to EC50. Anti-HCV activity of the study compound was estimated by combining its EC50 value with SI.
Huh7.5 cells were seeded into 96-well or 6-well plates (Costar) at a density of 3×10^4 cells/cm^2. After 24 h incubation, the cells were infected with HCV viral stock (recombination virus strain J6/JFH/JC, 45 IU/cell) and simultaneously treated with the test compounds at various concentrations.
(§2) Concentrations or solvent as the control. The culture medium was removed after 72 h incubation, the intracellular total RNA (in 96-well plates) was extracted with RNeasy Mini Kit (Qiagen), and total intracellular proteins (in 6-well plates) were extracted with Cyto-Buster Protein Extraction Reagent added with 1 mM protease inhibitor cocktail. The intracellular HCV RNA was quantified with a real time one-step reverse-transcription polymerase chain reaction (RT-PCR). HCV core protein was detected with western blot (see below).

Huh7.5 cells = experiment: Cytotoxicity assay (MTT) in Huh7.5 cells; format: cell-based, Human
Method: as §1
Huh7.5 cells were seeded into 96-well plates (Costar) at a density of 3×10^4 cells/cm^2. After 24 h incubation. Fresh culture medium containing test compounds at various concentrations were added. 72 h later, Cytotoxicity was evaluated with 3-(4,5-Dimethylthiazol-2-yl)-2,5-diphenyltetrazolium bromide (MTT).

Hsc70 = Hsc70 protein expression in Huh7.5 cells (Western blot); format: cell-based, Human; conditions: Huh7.5 cells, 31.25, 62.5, 125 and 250 µg/mL, 72 h
Method: as §2
The extracted total protein were denatured by adding 5× loading buffer (250 mM Tris-HCl, pH 6.8, 5% dithiothreitol, 10% SDS, 0.5% bromophenol blue, 50% glycerol), followed by boiling for 10 min. Proteins were analyzed with SDS-PAGE, then transfered onto nitrocellulose membranes by electroblotter. The membranes were blocked in 5% nonfat dry milk in TBS-T solusion (20 mM Tris, 150 mM NaCl, 0.1% Tween-20) for 1 h, and washed three times for 10 min each in the TBS-T. Membrane samples were probed with monoclonal antibody specific for protein of HCV core or Hsc70. As a control, monoclonal antibody to actin was used. […] Protein was detected using Immbilon Western Chemiluminescent HRP Substrate (Millipore Inc.) with Alpha Innotech Focus and Image Acquisition.

HCV NS3/4A protease = biological target: T1, HCV NS3/4A protease (Hepatitis C virus genotype 2a, UniProt Q99IB8); format: biochemical; conditions: 250 µg/mL, in the lysates
T1 construct: HCV NS3/4A protease activity (Michaelis constant Km = 0.60 µM) in the lysates; endogenous in cells; host or cells: lysates

HCV NS3 = experiment: Intracellular HCV NS3 protein level in infected Huh7.5 cells (Western blot); format: cell-based, hepatitis C virus (HCV)
[2] = Oral pharmacokinetics in male ICR mice; conditions: for MRT / t1/2 / AUC 0−t / Cmax / Tmax: oral (ig) 25 mg/kg; for Cmax / Tmax: plasma
Method: The study compounds were given to male ICR mice via oral (ig, 25 mg/kg) route.
Male male ICR mice (20–40 g) were obtained from SLAC Laboratory Animal Inc. (Shanghai, China). Three male ICR mice were used in each study. Each of them was dosed with a tested compound at 25 mg/kg via oral administration. Nine blood samples were collected at 0, 0.25, 0.50, 1.0, 2.0, 4.0, 6.0 and 24 h and were immediately centrifuged to separate the plasma fractions. The separated plasma samples were stored at –20°C for analysis. Concentration-versus-time profiles were obtained for each analyte, and standard non-compartmental analysis was performed on the data using WinNonlin software, version 5.3, to recover the AUC and other non-compartmental parameters.

HCV = conditions: Huh7.5 cells
Source text: To further confirm the mode of action for the activity against HCV, down-regulation of Hsc70 expression by 7c was also examined by Western Blot.

[3] = Single dose toxicity test in mice; conditions: for effect on body weight: i.g single dose 250, 500 or 1000 mg/kg (data not shown); for mortality: i.g single dose 250, 500 or 1000 mg/kg, 7 days; for LD50: oral (i.g) single dose, monitored 7 days
Method: Single dose toxicity tests for 7c and 7m were carried out in mice as well. After 7c or 7m was given by intragastric administration (i.g) at a dose of 250, 500 or 1000 mg/kg, the mice were closely monitored for 7 days.
Animals were purchased from the Institute of Laboratory Animal Sciences, Chinese Academy of Medical Sciences and Peking Union Medical College, Beijing, China. All experimental procedures were approved by Biomedical Ethics Committee of Chinese Academy of Medical Sciences of animal use and protection. The mice were cared according to the institutional guidelines of the Chinese Academy of Medical Sciences. Male and female KunMing mice with weight of 22.0±1.0 g were fed with regular chow and housed in an air-conditioned room. The mice were randomly divided into five groups with 10 mice each (five male plus five female). The each group of mice were administrated orally 7c and 7m at 0 (saline as control), 500 or 1000 mg/kg, respectively. The test compounds were given in a single-dosing. Body weight as well as survival was closely monitored.

[4] = cytotoxicity, Huh7.5 cells, MTT, 72 h, read-out: CC50

T1 sequence (Q99IB8 1662-1715): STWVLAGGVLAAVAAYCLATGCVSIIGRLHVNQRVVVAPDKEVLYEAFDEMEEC
T1 sequence (Q99IB8 1031-1661): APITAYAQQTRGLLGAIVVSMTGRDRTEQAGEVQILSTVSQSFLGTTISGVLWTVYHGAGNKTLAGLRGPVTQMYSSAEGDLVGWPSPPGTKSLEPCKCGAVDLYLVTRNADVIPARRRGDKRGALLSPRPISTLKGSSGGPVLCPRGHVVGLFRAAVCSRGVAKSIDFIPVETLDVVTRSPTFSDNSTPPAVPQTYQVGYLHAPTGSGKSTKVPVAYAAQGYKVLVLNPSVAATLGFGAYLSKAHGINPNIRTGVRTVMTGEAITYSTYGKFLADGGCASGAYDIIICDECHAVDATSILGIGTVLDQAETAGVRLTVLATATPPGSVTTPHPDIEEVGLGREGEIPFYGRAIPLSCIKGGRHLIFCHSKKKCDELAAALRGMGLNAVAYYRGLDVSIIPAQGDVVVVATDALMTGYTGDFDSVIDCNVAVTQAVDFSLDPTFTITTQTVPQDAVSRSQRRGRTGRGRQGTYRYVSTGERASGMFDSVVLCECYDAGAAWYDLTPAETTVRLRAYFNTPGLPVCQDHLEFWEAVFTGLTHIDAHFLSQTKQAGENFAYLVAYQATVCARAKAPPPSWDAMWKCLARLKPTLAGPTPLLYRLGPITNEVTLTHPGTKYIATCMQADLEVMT

| Structure (SMILES) | SI (selectivity index, CC50/EC50) [1] | pEC50 [1] | CC50 (Huh7.5 cells) [µM] | other results |
| --- | --- | --- | --- | --- |
| Cc1ccccc1CN1CC2CCCN3CCCC(C1CCCC(=O)O)C23 (stereo not drawn) [Compound 7a, 12-N-2-Methylbenzyl matrinic acid] | 5.6 | 3.69 | 1130 | – |
| Cc1cccc(CN2C[C@@H]3CCCN4CCC[C@@H]([C@H]34)[C@H]2CCCC(=O)O)c1 [Compound 7b, 12-N-3-Methylbenzyl matrinic acid] | 9.0 | 3.58 | 2390 | – |
| Cc1ccc(CN2CC3CCCN4CCCC(C2CCCC(=O)O)C34)cc1 (stereo not drawn) [Compound 7c, 12-N-4-Methylbenzyl matrinic acid] | – | 4.29 | – | improvement in anti-HCV activity as compared to 1 [1]: 2 fold; Hsc70 protein expression (Hsc70): afforded activity in down-regulating Hsc70 protein expression; also recorded: decreased dose-dependently; HCV NS3/4A protease activity after treatment (HCV NS3/4A protease): not altered; HCV NS3 level (HCV NS3; Huh7.5 cells, 62.5 µg/mL): significantly reduced; intracellular HCV-NS3 protein (HCV NS3; Huh7.5 cells, 31.25, 62.5, 125 and 250 µg/mL, 72 h): decreased dose-dependently; MRT [2]: 1.68 h; t1/2 [2]: 1.5 h; AUC 0−t ([2]; 0 to 24 h): 13.4 µM·h; Cmax [2]: 13.2 µM; Tmax [2]: 0.25 h; therapeutic efficacy before, at and after infection (HCV): anti-HCV pattern close to that of 7m; CC50 (Huh7.5 cells; [4]): > 2700 µM; effect on body weight [3]: no effect; mortality [3]: No mouse died; LD50 [3]: > 1000 mg/kg |
| O=C(O)CCC[C@@H]1[C@H]2CCCN3CCC[C@@H](CN1Cc1ccccc1F)[C@@H]23 [Compound 7d, 12-N-2-Fluorobenzyl matrinic acid] | 19.0 | 4.06 | 1660 | – |
| O=C(O)CCCC1C2CCCN3CCCC(CN1Cc1cccc(F)c1)C23 (stereo not drawn) [Compound 7e, 12-N-3-Fluorobenzyl matrinic acid] | 8.4 | 3.77 | 1410 | – |
| O=C(O)CCCC1C2CCCN3CCCC(CN1Cc1ccc(F)cc1)C23 (stereo not drawn) [Compound 7f, 12-N-4-Fluorobenzyl matrinic acid] | >15.1 | 3.75 | > 2670 | – |
| O=C(O)CCCC1C2CCCN3CCCC(CN1Cc1ccccc1Cl)C23 (stereo not drawn) [Compound 7g, 12-N-2-Chlorobenzyl matrinic acid] | 7.3 | 3.75 | 1290 | – |
| O=C(O)CCCC1C2CCCN3CCCC(CN1Cc1cccc(Cl)c1)C23 (stereo not drawn) [Compound 7h, 12-N-3-Chlorobenzyl matrinic acid] | >28.9 | 4.05 | > 2560 | anti-HCV activity (in words) [1]: slight improvement in comparison to the lead |
| O=C(O)CCCC1C2CCCN3CCCC(CN1Cc1ccc(Cl)cc1)C23 (stereo not drawn) [Compound 7i, 12-N-4-Chlorobenzyl matrinic acid] | 18.4 | 3.87 | 2500 | – |
| O=C(O)CCCC1C2CCCN3CCCC(CN1Cc1ccc(Cl)c(Cl)c1)C23 (stereo not drawn) [Compound 7j, 12-N-3,4-Dichlorobenzyl matrinic acid] | 3.7 | 3.57 | 1010 | – |
| O=C(O)CCCC1C2CCCN3CCCC(CN1Cc1ccc(Cl)cc1Cl)C23 (stereo not drawn) [Compound 7k, 12-N-2,4-Dichlorobenzyl matrinic acid] | 1.3 | 3.34 | 578 | – |
| O=C(O)CCCC1C2CCCN3CCCC(CN1Cc1ccc(Br)cc1)C23 (stereo not drawn) [Compound 7l, 12-N-4-Bromobenzyl matrinic acid] | 10.3 | 3.92 | 1230 | – |
| C=Cc1ccc(CN2C[C@@H]3CCCN4CCC[C@@H]([C@H]34)[C@H]2CCCC(=O)O)cc1 [Compound 7m, 12-N-4-Vinylbenzyl matrinic acid] | 39.2 | 5.33 | – | HCV NS3/4A protease activity after treatment (HCV NS3/4A protease): not altered; Cmax relative to that of 7c ([2]; oral 25 mg/kg): 1.8 fold; AUC relative to that of 7c ([2]; oral 25 mg/kg, 0 to 24 h): approximately 2 fold; MRT [2]: 1.65 h; t1/2 [2]: 2.01 h; AUC 0−t ([2]; 0 to 24 h): 25.9 µM·h; Cmax [2]: 23.2 µM; Tmax [2]: 0.5 h; therapeutic efficacy before, at and after infection (HCV): effective before, at and after HCV infection; CC50 (Huh7.5 cells; [4]): 184 µM; effect on body weight [3]: no effect; mortality [3]: No mouse died; LD50 [3]: over 1000 mg/kg |
| O=C(O)CCC[C@@H]1[C@H]2CCCN3CCC[C@@H](CN1Cc1ccc(OC(F)(F)F)cc1)[C@@H]23 [Compound 7n, 12-N-4-Trifluoromethoxybenzyl matrinic acid] | 15.5 | 4.05 | 1380 | – |
| O=C(O)CCCC1C2CCCN3CCCC(CN1Cc1cccc4ccccc14)C23 (stereo not drawn) [Compound 7o, 12-N-1-Naphthylmethylenyl matrinic acid] | <1.6 | < 3.09 | 1300 | anti-HCV activity (in words) [1]: lost the activity completely |
| COc1ccc(CN2CC3CCCN4CCCC(C2CCCC(=O)O)C34)cc1 (stereo not drawn) [Compound 12a, 12-N-4-Methoxybenzyl sophoridinic acid] | 18.5 | 4.24 | 1060 | – |
| Cc1cccc(CN2CC3CCCN4CCCC(C2CCCC(=O)O)C34)c1 (stereo not drawn) [Compound 12b, 12-N-3-Methylbenzyl sophoridinic acid] | 2.9 | 3.34 | 1320 | – |
| Cc1ccc(CN2CC3CCCN4CCCC(C2CCCC(=O)O)C34)cc1 (stereo not drawn) [Compound 12c, 12-N-4-Methylbenzyl sophoridinic acid] | 4.4 | 3.30 | 2200 | – |
| O=C(O)CCCC1C2CCCN3CCCC(CN1Cc1ccccc1F)C23 (stereo not drawn) [Compound 12d, 12-N-2-Flurobenzyl sophoridinic acid] | <1.7 | < 3.05 | 1550 | – |
| O=C(O)CCCC1C2CCCN3CCCC(CN1Cc1ccc(F)cc1)C23 (stereo not drawn) [Compound 12e, 12-N-4-Flurobenzyl sophoridinic acid] | 10.4 | 3.97 | 1120 | – |
| O=C(O)CCCC1C2CCCN3CCCC(CN1Cc1ccc(OC(F)(F)F)cc1)C23 (stereo not drawn) [Compound 12f, 12-N-4-Trifluoromethoxybenzyl sophoridinic acid] | 12.7 | 4.95 | 141 | – |
